In patent US9550778B2, “Substituted 6-aryl-imidazopyridine and 6-aryl-triazolopyridine carboxamide analogs as negative allosteric modulators of mGluR5” (Vanderbilt University, priority 2014, dated 2017):

Experiments:
[1] = molecular target: rat mGluR5 (Rattus norvegicus (Rat), UniProt P31424); assay: Calcium mobilization assay in HEK 293A cells stably expressing rat mGluR5; assay type: cell-based; conditions: for IC50: HEK cells transfected with rat mGluR5, inhibition of glutamate EC80 response, ± standard error where average of at least three experiments; for remaining activity at 30 µM: HEK293-A, amplitude of response in the presence of 30 μM test compound as a percentage of maximal response (100 μM glutamate), read-out: % Glu Max
Description: The cells were grown overnight at 37° C. in the presence of 5% CO2. […] Dye was removed, 20 μL of assay buffer was added, and the plate was incubated for 5 minutes at room temperature.
Ca^2+ flux was measured using the Functional Drug Screening System (FDSS7000, Hamamatsu, Japan). After establishment of a fluorescence baseline for about 3 seconds, the compounds of the present invention were added to the cells, and the response in cells was measured. 2.3 minutes later an EC20 concentration of the mGluR5 receptor agonist glutamate was added to the cells, and the response of the cells was measured for 1.9 minutes; an EC80 concentration of agonist was added and readings taken for an additional 1.7 minutes. All test compounds were dissolved and diluted to a concentration of 10 mM in 100% DMSO. Compounds were then serially diluted 1:3 in DMSO into 10 point concentration response curves, transferred to daughter plates, and further diluted into assay buffer to a 2× stock. Calcium fluorescence measures were recorded as fold over basal fluorescence; raw data was then normalized to the maximal response to glutamate.
The raw data file containing all time points was used as the data source in the analysis template. This was saved by the FDSS as a tab-delimited text file. Data were normalized using a static ratio function (F/F0) for each measurement of the total 360 values per well divided by each well's initial value. Data were then reduced to peak amplitudes (Max−Initial Min) using a time range that starts approximately 3 seconds prior to the glutamate EC20/EC80 addition and continues for approximately 90-120 seconds. This is sufficient time to capture the peak amplitude of the cellular calcium response. Individual amplitudes were expressed as % EMax by multiplying each amplitude by 100 and then dividing the product by the mean of the amplitudes derived from the glutamate ECMax-treated wells. IC50 values for test compounds were generated by fitting the normalized values versus the log of the test compound concentration (in mol/L) using a 4 parameter logistic equation where none of the parameters were fixed. Each of the three values collected at each concentration of test compound were weighted evenly.
The mGluR5 activity was determined using the calcium mobilization assays in human embryonic kidney cells as described herein below, wherein the human embryonic kidney cells were transfected with rat mGluR5. The mGluR5 activity data for some compounds are shown as the average of at least three experiments with the standard error in these cases. If no error is indicated for the mGluR5 activity, the values given represent the results from a single experiment or the average of two experiments. The compounds in Table 1 were synthesized with methods identical or analogous to those shown herein. The requisite starting materials were commercially available, described in the literature, or readily synthesized by one skilled in the art of organic synthesis.
GluMax is the amplitude of response in the presence of 30 μM test compound as a percentage of maximal response (100 μM glutamate). Partial antagonists display concentration-response curves (CRCs) that plateau above 10%.

[2] = molecular target: cytochrome P450 1A2 (Homo sapiens (Human), UniProt P05177); conditions: cited from earlier work
[3] = intravenous administration, rhesus monkeys; cited from earlier work
[4] = system: N-methyl-D-aspartate (NMDA) receptor; conditions: at higher concentrations; cited from earlier work
[5] = molecular target: mGluR4 (Homo sapiens (Human), UniProt Q14833); conditions: cited from earlier work
Sequence of mGluR4 (Q14833 33-912): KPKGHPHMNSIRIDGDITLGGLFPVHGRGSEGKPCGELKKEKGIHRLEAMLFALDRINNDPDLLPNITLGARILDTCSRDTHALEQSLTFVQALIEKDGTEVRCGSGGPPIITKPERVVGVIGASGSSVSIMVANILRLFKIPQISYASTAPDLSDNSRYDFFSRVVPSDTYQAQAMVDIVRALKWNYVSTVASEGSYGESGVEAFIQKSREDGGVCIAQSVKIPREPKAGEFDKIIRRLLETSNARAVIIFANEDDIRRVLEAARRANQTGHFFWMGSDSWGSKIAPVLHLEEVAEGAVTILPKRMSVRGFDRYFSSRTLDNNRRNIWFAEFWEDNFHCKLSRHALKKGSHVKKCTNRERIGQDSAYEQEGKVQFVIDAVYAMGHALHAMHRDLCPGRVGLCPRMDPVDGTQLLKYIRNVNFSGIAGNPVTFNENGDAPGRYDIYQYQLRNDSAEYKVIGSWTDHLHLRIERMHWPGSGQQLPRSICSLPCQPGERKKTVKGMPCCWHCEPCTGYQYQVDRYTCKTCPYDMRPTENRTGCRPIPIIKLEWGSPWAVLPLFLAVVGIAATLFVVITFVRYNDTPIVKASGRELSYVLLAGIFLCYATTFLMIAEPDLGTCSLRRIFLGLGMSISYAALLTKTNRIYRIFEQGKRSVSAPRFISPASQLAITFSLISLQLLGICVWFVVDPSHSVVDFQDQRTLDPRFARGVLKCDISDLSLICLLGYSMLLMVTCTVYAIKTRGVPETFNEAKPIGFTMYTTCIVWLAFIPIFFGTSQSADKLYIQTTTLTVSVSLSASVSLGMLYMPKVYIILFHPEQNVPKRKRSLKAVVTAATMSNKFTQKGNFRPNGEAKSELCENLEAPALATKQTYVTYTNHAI

Sequence of rat mGluR5 (P31424 21-1203): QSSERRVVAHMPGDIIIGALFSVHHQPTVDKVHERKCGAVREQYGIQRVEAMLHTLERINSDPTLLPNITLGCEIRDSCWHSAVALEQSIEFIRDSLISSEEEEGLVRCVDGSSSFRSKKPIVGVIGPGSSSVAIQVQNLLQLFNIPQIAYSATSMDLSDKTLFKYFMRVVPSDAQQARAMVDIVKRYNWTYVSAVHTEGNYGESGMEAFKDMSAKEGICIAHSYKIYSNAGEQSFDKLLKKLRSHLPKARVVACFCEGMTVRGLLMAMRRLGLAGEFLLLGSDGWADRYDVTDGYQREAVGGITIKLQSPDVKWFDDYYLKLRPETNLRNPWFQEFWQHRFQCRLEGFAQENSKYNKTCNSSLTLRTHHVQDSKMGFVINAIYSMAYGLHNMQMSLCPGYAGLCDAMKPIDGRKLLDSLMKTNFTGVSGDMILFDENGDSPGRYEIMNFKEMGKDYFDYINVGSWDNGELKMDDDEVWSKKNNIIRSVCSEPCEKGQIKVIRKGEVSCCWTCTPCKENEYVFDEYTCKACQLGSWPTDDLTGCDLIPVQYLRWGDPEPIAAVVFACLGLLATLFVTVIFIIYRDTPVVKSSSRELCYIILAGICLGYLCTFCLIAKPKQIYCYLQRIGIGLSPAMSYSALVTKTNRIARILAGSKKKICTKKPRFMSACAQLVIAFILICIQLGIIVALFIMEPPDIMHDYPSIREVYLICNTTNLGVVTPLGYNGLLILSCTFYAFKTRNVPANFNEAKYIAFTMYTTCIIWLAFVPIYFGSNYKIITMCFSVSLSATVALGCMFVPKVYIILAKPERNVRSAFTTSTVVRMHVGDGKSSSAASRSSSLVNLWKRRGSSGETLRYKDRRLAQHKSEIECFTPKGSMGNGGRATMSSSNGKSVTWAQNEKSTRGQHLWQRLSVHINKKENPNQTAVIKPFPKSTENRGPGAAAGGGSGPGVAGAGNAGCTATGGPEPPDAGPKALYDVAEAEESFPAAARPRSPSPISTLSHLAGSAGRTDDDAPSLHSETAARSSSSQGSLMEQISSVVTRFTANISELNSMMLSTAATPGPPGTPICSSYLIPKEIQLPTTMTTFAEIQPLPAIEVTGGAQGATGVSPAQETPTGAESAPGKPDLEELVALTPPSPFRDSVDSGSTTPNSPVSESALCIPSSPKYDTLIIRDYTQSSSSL
Sequence of cytochrome P450 1A2 (P05177 whole entry, species assumed): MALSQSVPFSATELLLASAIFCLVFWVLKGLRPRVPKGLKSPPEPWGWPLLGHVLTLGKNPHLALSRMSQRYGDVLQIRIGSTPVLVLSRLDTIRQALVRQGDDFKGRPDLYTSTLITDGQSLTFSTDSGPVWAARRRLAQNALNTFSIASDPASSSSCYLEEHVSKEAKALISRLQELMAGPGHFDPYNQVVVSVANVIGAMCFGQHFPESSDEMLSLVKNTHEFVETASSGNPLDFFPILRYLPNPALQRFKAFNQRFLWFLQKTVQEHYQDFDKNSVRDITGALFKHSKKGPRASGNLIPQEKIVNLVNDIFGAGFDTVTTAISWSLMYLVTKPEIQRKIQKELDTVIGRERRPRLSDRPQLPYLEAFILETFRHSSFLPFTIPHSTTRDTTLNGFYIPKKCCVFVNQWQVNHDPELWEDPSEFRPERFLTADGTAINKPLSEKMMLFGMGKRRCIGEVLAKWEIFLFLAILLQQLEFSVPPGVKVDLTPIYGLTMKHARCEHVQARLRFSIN

Compound | IC50 [1] [nM] | other results
CCc1cccc(NC(=O)c2cc(-c3cnccc3C)cn3ncnc23)n1 | 1760 | 
Cc1nc(C#Cc2cccnc2)cs1 [MTEP, 3-[(2-methyl-1,3-thiazol-4-yl)ethynyl]pyridine] |  | inhibition of cytochrome P450 1A2 [2]: potent inhibitor; clearance [3]: efficiently cleared
Cc1csc(NC(=O)c2cc(-c3cnc(F)c(C)c3)cn3ncnc23)n1 | 2810 | 
Cc1csc(NC(=O)c2cc(-c3cccc(F)c3)cn3ncnc23)n1 | 788 | 
Cc1cc(-c2cc(C(=O)Nc3ccc(F)cn3)c3nccn3c2)[nH]n1 | 3930 | 
COc1cnc(-c2cc(C(=O)Nc3nc(C)cs3)c3ncnn3c2)cn1 | > 10000 | remaining activity at 30 µM [1]: 71%
Cc1csc(NC(=O)c2cc(-c3ccc4cnn(C)c4c3)cn3ncnc23)n1 | > 10000 | remaining activity at 30 µM [1]: 30%
Cc1csc(NC(=O)c2cc(-c3cccc4cnn(C)c34)cn3ncnc23)n1 | 10200 | 
Cc1csc(NC(=O)c2cc(-c3cc4ccccc4o3)cn3ncnc23)n1 | > 10000 | remaining activity at 30 µM [1]: 39%
Cc1cncc(-c2cc(C(=O)Nc3nc(C)cs3)c3ncnn3c2)c1 | 1500 | 
CCc1ccncc1-c1cc(C(=O)Nc2nc(C)cs2)c2ncnn2c1 | 984 | 
Cc1csc(NC(=O)c2cc(-c3ccccc3)cn3ncnc23)n1 | 385 | 
Cc1ccncc1-c1cc(C(=O)Nc2ccc(F)cn2)c2ncnn2c1 | > 10000 | remaining activity at 30 µM [1]: 52%
Cc1cc(-c2cc(C(=O)Nc3nc(C)cs3)c3nccn3c2)[nH]n1 | 1410 | 
Cc1csc(NC(=O)c2cc(-c3ccc4occc4c3)cn3ncnc23)n1 | > 30000 | 
Cc1cc(-c2cc(C(=O)Nc3nc(C)cs3)c3ncnn3c2)ccn1 | 10000 | 
Cc1cccc(C#Cc2ccccc2)n1 [MPEP, 2-methyl-6-(phenylethynyl)pyridine] |  | inhibition of NMDA receptor activity [4]: directly inhibit; activity at mGluR4 [5]: positive allosteric modulator
Cc1csc(NC(=O)c2cc(-c3cccnc3F)cn3ncnc23)n1 | 978 | 
Cc1csc(NC(=O)c2cc(-c3ccnn3C)cn3ncnc23)n1 | 378 ± 17 | 
Cc1csc(NC(=O)c2cc(-c3ccc4c(cnn4C)c3)cn3ncnc23)n1 | > 10000 | remaining activity at 30 µM [1]: 53%
Cc1csc(NC(=O)c2cc(-c3cnncc3C)cn3ncnc23)n1 | 2910 | 
Cc1csc(NC(=O)c2cc(-c3ccc4ncccc4c3)cn3ncnc23)n1 | > 10000 | remaining activity at 30 µM [1]: 74%
Cc1cc(-c2cc(C(=O)Nc3nc(C)cs3)c3ncnn3c2)[nH]n1 | 60 ± 8 | 
Cc1csc(NC(=O)c2cc(-c3ccccc3C)cn3ncnc23)n1 | 7940 | 
Cc1cc(-c2cc(C(=O)Nc3ccc(F)cn3)c3ncnn3c2)n(C)n1 | 2130 | 
Cc1cc(-c2cc(C(=O)Nc3cccc(F)n3)c3ncnn3c2)n(C)n1 | 835 | 

Compound | IC50 [1] [nM] | other results
Cc1csc(NC(=O)c2cc(-c3ccnnc3)cn3ncnc23)n1 | > 10000 | remaining activity at 30 µM [1]: 27%
Cc1csc(NC(=O)c2cc(-c3cncnc3)cn3ncnc23)n1 | 758 ± 280 | 
CCn1nccc1-c1cc(C(=O)Nc2nc(C)cs2)c2ncnn2c1 | 3920 | 
Cc1csc(NC(=O)c2cc(-c3cnn(C)c3)cn3ncnc23)n1 | > 10000 | remaining activity at 30 µM [1]: 30%
Cc1csc(NC(=O)c2cc(-c3cccc4c3cnn4C)cn3ncnc23)n1 | 7020 | 
Cc1csc(NC(=O)c2cc(-c3cccnc3)cn3ncnc23)n1 | 587 | 
COc1ccc(NC(=O)c2cc(-c3cnccc3C)cn3ncnc23)nc1 | 1310 | 
Cc1csc(NC(=O)c2cc(-c3ccc(F)nc3)cn3ncnc23)n1 | 4930 | 
Cc1cc(-c2cc(C(=O)Nc3ccc(F)cn3)c3ncnn3c2)[nH]n1 | > 30000 | 
Cn1nccc1-c1cc(C(=O)Nc2ccc(F)cn2)c2nncn2c1 | 1450 | 
Cc1ccc(NC(=O)c2cc(-c3cnccc3C)cn3ncnc23)nc1 | 325 | 
Cc1cc(C)cc(-c2cc(C(=O)Nc3nc(C)cs3)c3ncnn3c2)c1 | > 10000 | remaining activity at 30 µM [1]: 57%
Cc1csc(NC(=O)c2cc(-c3cc(C)nn3C)cn3ncnc23)n1 | 690 | 
Cc1csc(NC(=O)c2cc(-c3ccc4c(ccn4C)c3)cn3ncnc23)n1 | > 10000 | remaining activity at 30 µM [1]: 27%
Cc1cccc(NC(=O)c2cc(-c3cnccc3C)cn3ncnc23)n1 | 793 | 
Cc1csc(NC(=O)c2cc(-c3cnccc3C3CC3)cn3ncnc23)n1 | 1010 | 
Cc1csc(NC(=O)c2cc(-c3ccn(C)n3)cn3ncnc23)n1 | > 10000 | remaining activity at 30 µM [1]: 70%
COc1cccc(NC(=O)c2cc(-c3cnccc3C)cn3ncnc23)n1 | > 10000 | remaining activity at 30 µM [1]: 31%
Cc1ccncc1-c1cc(C(=O)Nc2ccccn2)c2ncnn2c1 | 358 | 
Cc1ccc(NC(=O)c2cc(-c3cc(C)n[nH]3)cn3ccnc23)nc1 | 5110 | 
Cc1csc(NC(=O)c2cc(-c3cn(C)nc3C)cn3ncnc23)n1 | 2160 | 
Cc1cccc(-c2cc(C(=O)Nc3nc(C)cs3)c3ncnn3c2)c1 | 4770 | 
COc1ccc(C)c(-c2cc(C(=O)Nc3nc(C)cs3)c3ncnn3c2)c1 | 7100 | 
Cc1cc(-c2cc(C(=O)Nc3ccccn3)c3nccn3c2)[nH]n1 | 1140 | 
Cc1csc(NC(=O)c2cc(-c3cnccc3C)cn3ncnc23)n1 | 170 | 
Cc1csc(NC(=O)c2cc(-c3ccncc3)cn3ncnc23)n1 | 8070 | 
